Measurements reported in US9951335B2, “Compositions and methods for treating otitis media and other conditions with inhibitors of CYLD” (Georgia State University Research Foundation, Inc., priority 2012, dated 2018).
Where two headings read alike, the source gives them in different places. Residues, ends and D or L forms follow the SMILES beside them. *: point of attachment. Cbz = O=C(OCc1ccccc1)*

Assays:
Smad3 [1] = test: Smad3 protein expression in cells incubated with Akt or PI3K inhibitor (immunoblotting); assay type: cell-based, mouse; conditions: 20 μM; MEF cells from Cyld+/+ and Cyld−/− mice (FIG. 5d), cells (FIG. 5e)
Protocol: FIG. 5 illustrates that CYLD decreases Smad3 stability by inhibiting Akt. (a) MEF cells from Cyld+/+ and Cyld−/− mice were transfected with siCon or siAkt1/2 and analysed by immunoblotting with the indicated antibodies. (b) SBE-promoter activity was determined in siCYLD-transfected A549 cells with or without siAkt co-transfection and stimulated with TGF-β. (c) SBE-promoter activity was determined in MEFs from Cyld+/+ and Cyld−/− mice pretreated with Akt inhibitor and stimulated with TGF-β. (d) MEF cells from Cyld+/+ and Cyld−/− mice were incubated with Akt inhibitor (20 μM), and cell lysates were analysed by immunoblotting with the indicated antibodies. (e) Cells were incubated with Akt inhibitor (20 μM) or LY294002 (20 μM), and cell lysates were analysed by immunoblotting with the indicated antibodies. (f) Lysates from cells transfected with HA-CYLD and Flag-Akt were immunoprecipitated with anti-CYLD antibody (upper panel) or anti-Akt antibody (lower panel), and interacting proteins were analysed by immunoblotting. […]
Western blot, immunoprecipitation and ubiquitination experiments were performed as follows. […] Immunoprecipitates were then suspended in a sample buffer, separated on 8% SDS-PAGE, transferred to polyvinylidine difluoride membrane, and detected by immunoblot analysis, as described above. […]

TGF-β-signalling = test: TGF-β-induced SBE-promoter activity in mouse MEF cells; assay type: cell-based; conditions: Cyld−/− MEFs pretreated with inhibitor
Protocol: (§1) The expression plasmids Flag-WT-CYLD, HA-WT-CYLD, Flag-H/N-CYLD, HA-C/S-CYLD, Flag-WT-Smad3, C/A-TβRI, and the reporter plasmids SBE-Luc, PAI-1-Luc, and NF-κB-Luc were previously described. Flag-WT-Akt1, pRK5-HA-Ub WT, pRK5-HA-Ub K63, and pRK5-HA-Ub K48 were from Addgene, and K to R mutants of Akt were generated with WT-Akt1 using QuickChange XL Site-Directed Mutagenesis kit (Stratagene). All transient transfections were carried out using TransIT-LT1 reagent (Minis) or Lipofectamine (Invitrogen) according to manufacturers' instructions.

Smad3 [2] = test: Smad3 protein level in transfected cells by immunoblotting; assay type: cell-based, human
Protocol: Western blot, immunoprecipitation and ubiquitination experiments were performed as follows. Western blots were performed using whole-cell extracts, separated on 8 or 10% SDS-PAGE gels, and transferred to polyvinylidine di& uoride membranes. The membrane was blocked with a solution of PBS containing 0.1% Tween 20 (PBS-T) and 5% BSA. The membrane was then incubated in a 1:2,000 dilution of a primary antibody in 5% BSA-PBS-T. After three washes in PBS-T, the membrane was incubated with 1:5,000 dilution of the corresponding secondary antibody in 3% non-fact skim milk-PBS-T. Respective proteins were visualized by using enhanced chemiluminescence detection reagents, according to the manufacturer's instructions. To conduct immunoprecipitation analysis, cell lysates were incubated with 1 μg of primary antibodies overnight, at 4° C., followed by 2-h incubation with protein A/G-agarose beads (Invitrogen). Immunoprecipitates were then suspended in a sample buffer, separated on 8% SDS-PAGE, transferred to polyvinylidine difluoride membrane, and detected by immunoblot analysis, as described above. […]

PAI-1 = test: TGF-β-induced PAI-1 expression (promoter activity, mRNA) in human cells; assay type: cell-based; conditions: WT-CYLD-transfected cells pre-treated with MG-132; mRNA
Protocol: Total RNA was isolated using TRIzol reagent following the manufacturer's instructions. Synthesis of complementary DNA from total RNA was performed with MultiScribe reverse transcriptase. Real-time quantitative PCR was performed using an ABI 7500 Sequence Detection System (Applied Biosystems). Relative quantities of mRNAs were calculated using the comparative threshold cycle method and normalized using human and mouse glyceraldehyde-3-phosphate dehydrogenase as an endogenous control. The primer sequences for mouse COL1A2, COL3A1, CTGF and PAI-1, and human PAI-1, CHIP, and Smad3 are as follows. Mouse CTGF: 5′-[…]-3′ (SEQ ID NO:1) and 5′-[…]-3′ (SEQ ID NO:2); mouse COL1A2: 5′-[…]-3′ (SEQ ID NO:3) and 5′-[…]-3′ (SEQ ID NO:4); mouse COL3A1: 5′-[…]-3′ (SEQ ID NO:5) and 5′-[…]-3′ (SEQ ID NO:6); mouse PAI-1: 5′-[…]-3′ (SEQ ID NO:7) and 5′-[…]-3′ (SEQ ID NO:8); human PAI-1: 5′-[…]-3′ (SEQ ID NO:9) and 5′-[…]-3′ (SEQ ID NO:10); human CHIP: 5′-[…]-3′ (SEQ ID NO:11) and 5′-[…]-3′ (SEQ ID NO:12).
as §1

CYLD [3] = test: NTHi-induced up-regulation of CYLD in epithelial cells (Q-PCR, Western blot); assay type: cell-based, human; conditions: for NTHi-induced up-regulation of CYLD at both mRNA and protein levels: HMEEC, A549 and primary NHBE cells, conventional and air-liquid-interface culture
From the text: (§2) Phosphodiesterases (PDEs) have been recognized as therapeutic targets. […] For this reason, we initially sought to determine if PDEs act as key negative regulator for CYLD.

lung fibrosis = test: S. pneumoniae-induced lung fibrosis in Cyld−/− mice (H&E, Masson's trichrome); assay type: in vivo, mouse
Protocol: Cyld−/− mice were generated by homologous recombination as follows. The targeting construct was designed to disrupt the exons 2 and 3 with an IRES-LacZ/MC1-Neo cassette. The targeting plasmid was linearized and transfected into embryonic stem cells of a 129/S. Homologously recombined embryonic stem cells were injected into blastocysts that were subsequently transferred to foster mothers, to generate chimeric progeny. Generated chimeric progeny were backcrossed to C57BL/6J, and germline transmission was confirmed by PCR with tail DNA. Homozygous knockout of Cyld gene was confirmed by mRNA detection by RT-PCR and CYLD protein detection by western blot analysis in MEF cells and lung tissues. For S. pneumoniae-induced severe infections in WT and Cyld−/− mice, anaesthetized mice were intratracheally (i.t.) inoculated with live S. pneumoniae (5×10^7 CFU per mouse). Surviving mice from severe pneumonia were then sacrificed 2 weeks post S. pneumoniae infection for histopathological analysis. For TGF-β inoculation, anesthetized WT and Cyld−/− mice were i.t. inoculated with TGF-β (25-100 ng per mouse) for 6 hours, and lung tissues were then subjected to total mRNA and protein extraction. […]

[4] = tested on: NTHi-induced inflammation; test: NTHi-induced inflammation in epithelial cells (NF-κB activation, IL-1β, IL-8, TNF-α; Q-PCR, ELISA); assay type: cell-based, human; conditions: for NTHi-induced inflammatory response / concentration at which NTHi-induced inflammatory response was suppressed: HMEEC cell; for NTHi-induced inflammatory response: roflumilast at 1 μM
From the text: We next determined if PDE4 inhibition suppresses NTHi-induced inflammation. […] Despite showing that inhibiting PDE4 enhanced up-regulation of CYLD and suppressed NTHi-induced inflammation, it was still unclear whether inhibiting PDE4 suppressed inflammation by up-regulating CYLD or by inhibiting a positive regulator of inflammation (e.g., IKKβ).

PDE4B / PDE4D = conditions: known property, cited from earlier work
CYLD [5] = test: CYLD up-regulation in the middle ear of mouse OM model (Q-PCR, IF staining); assay type: in vivo
From the text: as §2
Ototopical administration works effectively when the eardrum is perforated either pathologically or surgically by tympanostomy tube insertion. Thus, we first determined if ototopical administration of rolipram up-regulates CYLD and suppresses inflammation in the middle ear of mice post NTHi inoculation.

[6] = tested on: NTHi-induced inflammation; test: NTHi-induced middle ear inflammation in mouse OM model (cytokines, otoscopy, histopathology); assay type: in vivo
NF-κB = NF-κB activation induced by overexpressing constitutively active IKKβ or wild-type p65; assay type: cell-based
From the text: We next determined if PDE4 inhibitors may also suppress inflammation via directly inhibiting IKKβ, the key positive regulator of NF-κB-dependent inflammation.

[7] = ototopical pre- and post-inoculation administration, mouse OM model

SMILES: CCCCCCCCCCCCCCCCCCOCC(COC(=O)OC1C(O)C(O)C(O)C(CO)C1O)OC [Akt inhibitor, 1L6-Hydroxymethyl-chiro-inositol-2(R)-2-O-methyl-3-O-octadecyl-sn-glycerocarbonate]
- Smad3 protein expression (Smad3 [1]): markedly reduced
- enhanced TGF-β-induced SBE promoter activity (TGF-β-signalling): inhibited

SMILES: CC(C)C[C@@H](C=O)NC(=O)[C@H](CC(C)C)NC(=O)[C@H](CC(C)C)NC(=O)OCc1ccccc1 [MG132] (Cbz-Leu-Leu-Leu-aldehyde)
- WT-CYLD-induced decrease in Smad3 protein level (Smad3 [2]; WT-CYLD-transfected cells, 20 μM): reversed
- WT-CYLD-induced decrease in TGF-β-induced PAI-1 expression (PAI-1): reversed

SMILES: CCCCOc1cc(CC2CNC(=O)N2)ccc1OC (centres unmarked) [Ro20-1724]
- NTHi-induced up-regulation of CYLD at both mRNA and protein levels (CYLD [3]): markedly enhanced

SMILES: C[S+]([O-])c1ccc(-c2nc(-c3ccc(F)cc3)c(-c3ccncc3)[nH]2)cc1 (centres unmarked) [SB203580]
- lung fibrosis in Cyld−/− mice (lung fibrosis; S. pneumoniae infection, 20 mg kg−1 intraperitoneal 1-2 hours before inoculation): did not affect

SMILES: Cn1cc(C2=C(c3ccc(Cl)cc3Cl)C(=O)NC2=O)c2ccccc21 [SB216763]
- WT-CYLD-induced Smad3 decrease (Smad3 [2]; A549 cells, 5 μM for 12 h): reversed

SMILES: NC(=O)c1ccc(-c2nc(-c3ccccn3)c(-c3ccc4c(c3)OCO4)[nH]2)cc1 [SB431542]
- lung fibrosis in S. pneumoniae-inoculated Cyld−/− lungs (lung fibrosis; 10 mg per kg body weight intraperitoneal, 2-weeks post infection): inhibited

SMILES: COc1ccc([C@]2(C#N)CC[C@@H](C(=O)O)CC2)cc1OC1CCCC1 [cilomilast]
- NTHi-induced inflammatory response [4]: no significant inhibitory effect
- PDE4 subfamily selectivity (PDE4B versus PDE4D) (PDE4B / PDE4D): more PDE4D selective

SMILES: O=C(Nc1c(Cl)cncc1Cl)c1ccc(OC(F)F)c(OCC2CC2)c1 [roflumilast]
- CYLD expression (CYLD [3]): enhanced
- concentration at which NTHi-induced inflammatory response was suppressed [4]: 1 µM
- NTHi-induced inflammatory response [4]: markedly suppressed
- PDE4 subfamily selectivity (PDE4B versus PDE4D) (PDE4B / PDE4D): more selective for PDE4B than for PDE4D
- PDE4 subfamily selectivity (PDE4B versus PDE4D) (PDE4B / PDE4D; listed as Roflumilast): more specific inhibitor for PDE4B

SMILES: COc1ccc(C2CNC(=O)C2)cc1OC1CCCC1 (centres unmarked) [rolipram]
- NTHi-induced up-regulation of CYLD at both mRNA and protein levels (CYLD [3]): markedly enhanced
- up-regulation of CYLD at the mRNA level and protein level in the middle ear mucosa (CYLD [5]; mouse model of OM, Q-PCR and IF staining): enhanced
- CYLD expression in the middle ear (CYLD [5]; [7]): up-regulated
- NTHi-induced mRNA expression of these cytokines in CYLD-deficient cells ([4]; CYLD-deficient cells): failed to inhibit
- concentration at which NTHi-induced inflammatory response was suppressed [4]: 10 µM
- NTHi-induced NF-κB activation ([4]; HMEEC, A549, primary NHBE cells): potently inhibited
- NTHi-induced up-regulation of IL-1β, IL-8 and TNF-α in CYLD-depleted cells ([4]; HMEEC, A549, primary NHBE cells, CYLD depleted with siRNA CYLD): no longer inhibited
- NTHi-induced up-regulation of pro-inflammatory mediators IL-1β, IL-8 and TNF-α at the mRNA and protein levels ([4]; HMEEC, A549, primary NHBE cells, Q-PCR and ELISA): potently inhibited
- NTHi-induced otoscopic pathological changes of OM (congestion and swelling of tympanic membranes, mucous effusion) ([6]; i.p. administration, NTHi-inoculated mice, otoscopic examination): inhibited
- middle ear mucosal thickening and PMN infiltration in the middle ear mucosa ([6]; i.p. administration, histopathologic analysis): inhibited
- NTHi-induced up-regulation of IL-1β and MIP-2, middle ear mucosal thickening and PMN infiltration ([6]; i.p. administration, mouse OM model, CYLD-deficiency context): no longer inhibited
- NTHi-induced up-regulation of the proinflammatory mediators in the middle ear of mouse ([6]; mouse): inhibited
- middle ear inflammation [6, 7]: suppressed
- activation of NF-κB induced by overexpressing constitutively active IKKβ or wild-type p65 (NF-κB): did not significantly inhibit
